Results as given in PubChem BioAssay AID330 (DTP/NCI, 2004).
Several values for one entry are separate records, joined by “and”; a condition that tells them apart may be missing. Identical values can stand only once. Toxic doses and inconclusive results are not listed. Rule for the calls: active = survival T/C of 150% or more; inactive = T/C below 125% in these data.

Test system: P388 leukemia ip, CD2F1 mice, survival T/C
Test: NCI In Vivo Anticancer Drug Screen. Data for tumor model P388 Leukemia (intraperitoneal) in CD2F1 (CDF1) mice
Details: endpoint: median survival time, higher = longer survival
In short: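 Mice carrying the transplanted tumor received test compound or vehicle. Survival was recorded in each group, and the value is the treated-group measurement divided by that of the vehicle-treated control group.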

[1] = dose: 100.0 mg/kg/injection, schedule: Q04DX003 (ip), vehicle: saline with Tween-80
[2] = dose: 200.0 mg/kg/injection, schedule: Q04DX003 (ip), vehicle: saline with Tween-80
[3] = dose: 50.0 mg/kg/injection, schedule: Q01DX009 (ip), vehicle: Klucel (hydroxypropylcellulose) (HPC)
[4] = dose: 100.0 mg/kg/injection, schedule: Q01DX009 (ip), vehicle: Klucel (hydroxypropylcellulose) (HPC)
[5] = dose: 200.0 mg/kg/injection, schedule: Q01DX009 (ip), vehicle: Klucel (hydroxypropylcellulose) (HPC)
[6] = dose: 100.0 mg/kg/injection, schedule: Q01DX001 (ip), vehicle: Klucel (hydroxypropylcellulose) (HPC)
[7] = dose: 200.0 mg/kg/injection, schedule: Q01DX001 (ip), vehicle: Klucel (hydroxypropylcellulose) (HPC)
[8] = dose: 400.0 mg/kg/injection, schedule: Q01DX001 (ip), vehicle: Klucel (hydroxypropylcellulose) (HPC)
[9] = dose: 50.0 mg/kg/injection, schedule: Q01DX005 (ip), vehicle: Klucel (hydroxypropylcellulose) (HPC)
[10] = dose: 60.0 mg/kg/injection, schedule: Q01DX005 (ip), vehicle: saline with Tween-80
[11] = dose: 120.0 mg/kg/injection, schedule: Q01DX005 (ip), vehicle: saline with Tween-80
[12] = dose: 240.0 mg/kg/injection, schedule: Q01DX005 (ip), vehicle: saline with Tween-80
[13] = dose: 50.0 mg/kg/injection, schedule: Q01DX005 (ip), vehicle: saline with Tween-80
[14] = dose: 100.0 mg/kg/injection, schedule: Q01DX005 (ip), vehicle: saline with Tween-80

Measured: T/C

[NH-]C(CC(N)=O)C(=O)O.[NH-]C(CC(N)=O)C(=O)O.[Pd+2] (stereo unspecified)
inactive: dose: 6.25 mg/kg/injection, schedule: Q04DX003 (ip), vehicle: saline with Tween-80 92 % of control | dose: 12.5 mg/kg/injection, schedule: Q04DX003 (ip), vehicle: saline with Tween-80 96 % of control | dose: 25.0 mg/kg/injection, schedule: Q04DX003 (ip), vehicle: saline with Tween-80 100 % of control | dose: 50.0 mg/kg/injection, schedule: Q04DX003 (ip), vehicle: saline with Tween-80 98 % of control | [1] 107 % of control | [2] 100 % of control

CC1=NNC(=O)/C1=C/c1ccccc1Cl
inactive: [3] 104 % of control | [4] 105 % of control | [5] 112 % of control | dose: 400.0 mg/kg/injection, schedule: Q01DX009 (ip), vehicle: Klucel (hydroxypropylcellulose) (HPC) 113 % of control

O=C(/C=C\c1cc2[nH]c1c(-c1ccccc1)c1nc(c(-c3ccccc3)c3ccc([nH]3)c(-c3ccccc3)c3nc(c2-c2ccccc2)C=C3)C=C1)NCCCn1ccnc1
inactive: dose: 50.0 mg/kg/injection, schedule: Q01DX001 (ip), vehicle: Klucel (hydroxypropylcellulose) (HPC) 100 % of control | [6] 94 % of control | [7] 93 % of control | [8] 96 % of control

Cc1cc(Cl)nc2ccc([N+](=O)[O-])cc12
inactive: dose: 100.0 mg/kg/injection, schedule: Q04DX003 (ip), vehicle: saline 92 % of control | dose: 200.0 mg/kg/injection, schedule: Q04DX003 (ip), vehicle: saline 94 % of control | dose: 400.0 mg/kg/injection, schedule: Q04DX003 (ip), vehicle: saline 91 % of control

COc1cc(NC(C)=O)c(OC)cc1N
inactive: dose: 25.0 mg/kg/injection, schedule: Q04DX002 (ip), vehicle: saline 104 % of control | dose: 50.0 mg/kg/injection, schedule: Q04DX002 (ip), vehicle: saline 98 % of control

COc1ccc2c(c1OC)C[C@@H]1c3c(cc4c(c3-2)OCO4)CCN1C
inactive: dose: 6.25 mg/kg/injection, schedule: Q01DX005 (ip), vehicle: Klucel (hydroxypropylcellulose) (HPC) 117 % of control | dose: 12.5 mg/kg/injection, schedule: Q01DX005 (ip), vehicle: Klucel (hydroxypropylcellulose) (HPC) 105 % of control | dose: 25.0 mg/kg/injection, schedule: Q01DX005 (ip), vehicle: Klucel (hydroxypropylcellulose) (HPC) 96 % of control | [9] 92 % of control

CCOC(CN=Cc1cc(C)c2oc3ccccc3c2c1C)OCC
inactive: dose: 50.0 mg/kg/injection, schedule: Q01DX009 (ip), vehicle: saline with Tween-80 100 % of control | dose: 100.0 mg/kg/injection, schedule: Q01DX009 (ip), vehicle: saline with Tween-80 100 % of control | dose: 200.0 mg/kg/injection, schedule: Q01DX009 (ip), vehicle: saline with Tween-80 95 % of control

Cn1c(=O)oc2cc(N)c(Br)cc21
inactive: [9] 90 % of control | dose: 100.0 mg/kg/injection, schedule: Q01DX005 (ip), vehicle: Klucel (hydroxypropylcellulose) (HPC) 92 % of control | dose: 200.0 mg/kg/injection, schedule: Q01DX005 (ip), vehicle: Klucel (hydroxypropylcellulose) (HPC) 94 % of control

CN(C)Cc1c(/C=C/C2=[N+](C)c3ccccc3C2(C)C)[nH]c2ccccc12
inactive: [3] 110 % of control | [4] 107 % of control | [5] 110 % of control

CCCCCCCCCCCCCCCCCCOCC(O)CO (stereo unspecified)
inactive: dose: 25.0 mg/kg/injection, schedule: Q01DX009 (ip), vehicle: saline + alcohol 91 % of control | dose: 50.0 mg/kg/injection, schedule: Q01DX009 (ip), vehicle: saline + alcohol 92 % of control | dose: 100.0 mg/kg/injection, schedule: Q01DX009 (ip), vehicle: saline + alcohol 94 % of control | dose: 200.0 mg/kg/injection, schedule: Q01DX009 (ip), vehicle: saline + alcohol 100 % of control | dose: 400.0 mg/kg/injection, schedule: Q01DX009 (ip), vehicle: saline + alcohol 100 % of control

CCN(CC)C/C=C(/C)CCC=C(C)C
inactive: dose: 5.0 mg/kg/injection, schedule: Q04DX002 (ip), vehicle: saline with Tween-80 103 % of control | dose: 10.0 mg/kg/injection, schedule: Q04DX002 (ip), vehicle: saline with Tween-80 99 % of control | dose: 20.0 mg/kg/injection, schedule: Q04DX002 (ip), vehicle: saline with Tween-80 95 % of control

Cc1sc2ccccc2c(=O)c1CO
inactive: [10] 97 % of control | [11] 97 % of control | [12] 97 % of control

C/C(CCCC(C)(C)C(=O)O)=N\NC(N)=O
inactive: [10] 100 % of control | [11] 94 % of control | [12] 97 % of control

COC1C/C(=N\O)C2OC(c3ccccc3)OCC2O1 (stereo unspecified)
inactive: dose: 1.56 mg/kg/injection, schedule: Q01DX009 (ip), vehicle: other 96 % of control | dose: 3.13 mg/kg/injection, schedule: Q01DX009 (ip), vehicle: other 104 % of control | dose: 6.25 mg/kg/injection, schedule: Q01DX009 (ip), vehicle: other 106 % of control | dose: 12.5 mg/kg/injection, schedule: Q01DX009 (ip), vehicle: other 92 % of control | dose: 25.0 mg/kg/injection, schedule: Q01DX009 (ip), vehicle: other 101 % of control and 94 % of control | dose: 50.0 mg/kg/injection, schedule: Q01DX009 (ip), vehicle: other 99 % of control | dose: 100.0 mg/kg/injection, schedule: Q01DX009 (ip), vehicle: other 100 % of control | dose: 200.0 mg/kg/injection, schedule: Q01DX009 (ip), vehicle: other 98 % of control | dose: 400.0 mg/kg/injection, schedule: Q01DX009 (ip), vehicle: other 100 % of control

CC1(C)CC(=O)N(CN2CCOCC2)C(=O)C1
inactive: dose: 60.0 mg/kg/injection, schedule: Q01DX005 (ip), vehicle: saline 100 % of control | dose: 120.0 mg/kg/injection, schedule: Q01DX005 (ip), vehicle: saline 100 % of control | dose: 240.0 mg/kg/injection, schedule: Q01DX005 (ip), vehicle: saline 110 % of control

CCN(CC)CCOCCOC1(C)CCC(C(C)C)CC1 (stereo unspecified)
inactive: dose: 50.0 mg/kg/injection, schedule: Q01DX005 (ip), vehicle: suspension in saline 108 % of control | dose: 100.0 mg/kg/injection, schedule: Q01DX005 (ip), vehicle: suspension in saline 106 % of control

Cc1cccc(/C=N/Nc2cc(C)c3cccc(C)c3n2)n1
inactive: [13] 100 % of control | [14] 89 % of control | dose: 200.0 mg/kg/injection, schedule: Q01DX005 (ip), vehicle: saline with Tween-80 88 % of control

COc1cc(CC2NCCc3cc(O)c(O)cc32)cc(OC)c1OC (stereo unspecified)
inactive: dose: 25.0 mg/kg/injection, schedule: Q01DX009 (ip), vehicle: Klucel (hydroxypropylcellulose) (HPC) 103 % of control | [3] 100 % of control and 113 % of control | [4] 106 % of control and 111 % of control | [5] 108 % of control

COC(=O)CC1(O)C(=O)OCc2c1cc1n(c2=O)Cc2c-1nc1ccccc1c2OC (stereo unspecified)
inactive: dose: 100.0 mg/kg/injection, schedule: Q01DX009 (ip), vehicle: suspension in saline 86 % of control
active: dose: 12.5 mg/kg/injection, schedule: Q01DX009 (ip), vehicle: saline 167 % of control | dose: 50.0 mg/kg/injection, schedule: Q01DX009 (ip), vehicle: saline 194 % of control | dose: 100.0 mg/kg/injection, schedule: Q01DX009 (ip), vehicle: saline 150 % of control and 184 % of control

CCN(CC)CCSc1nnc(-c2cc(OC)c(OC)c(OC)c2)o1
inactive: dose: 50.0 mg/kg/injection, schedule: Q04DX003 (ip), vehicle: water 100 % of control | dose: 100.0 mg/kg/injection, schedule: Q04DX003 (ip), vehicle: water 103 % of control

O=C(NN(C(=O)c1ccccc1)c1ccccc1)c1ccccc1
inactive: [13] 95 % of control | [14] 92 % of control

Cc1ccnc(NCCCCCCNc2nccc(C)n2)n1
inactive: [1] 87 % of control | [2] 98 % of control | dose: 400.0 mg/kg/injection, schedule: Q04DX003 (ip), vehicle: saline with Tween-80 91 % of control

O=S(Cc1ccc2c(c1)OCO2)c1ccccc1 (stereo unspecified)
inactive: [6] 101 % of control | [7] 100 % of control | [8] 100 % of control
